Experimental findings from US6514988B1, “Condensed-ring thiophene derivatives, their production and use” (Takeda Chemical Industries, Ltd., priority 1994, dated 2003) are described below.

The structures appear in SMILES notation. Structures can show the parent of a compound that is named as a salt. Where two headings read alike, the source gives them in different places.

The test system of data set [1] is primary cultured cells of rat pituitary anterior lobes. The experiment in a line: Inhibition of LH/FSH secretion by primary cultured cells of rat pituitary anterior lobes. In kind it is cell-based. The settings on record: 100 μl of 20 μM compound solution + 100 μl of 5 nM GnRH in 800 μl medium, 37° C. for 3 hours. The method, then: Anterior lobes of pituitary glands from 40 Wistar rats (8-week old, male) was put into a petri dish containing buffer A (0.7 mM sodium dihydrogen phosphate, 137 mM sodium chloride, 5 mM potassium chloride, 25 mM HEPES, 50 μg/ml gentamicin sulfate), which was once washed with the buffer A, then the anterior lobes were divided into four portions, followed by further washing twice. […] The concentrations of […] and FSH in the supernatant were determined by using the radio immunoassay kit (Amersham Inc.).
By calculating in accordance with the formula; 100−(LH or FSH concentration in the presence of the compound)/(LH or FSH concentration of the control culture)×100, the inhibiting rate (%) of LH or FSH secretion by each compound was determined. […]

A further data set deals with male SD rats. The experiment in a line: Suppression of testosterone concentration in rat plasma. In kind it is in vivo. Particulars: 30 mg per 1 kg once subcutaneously, plasma at 24 hours after administration, p<0.05. As for the experimental part: The compound 15 produced in Working Example 9 was dissolved in vehicle I (20% propylene glycol-80% physiological saline). The solution was administered once subcutaneously to male SD rats (8-week old, n=5). […] Animals administered with the vehicle alone were used as control.

The next data set has as its system male ICR mice. The settings on record: 30 mg per 1 kg orally once a day during 3 days, plasma at 24 hours after administration, p<0.05.

Protocol for male ICR mice: The solution was administered oraly once a day during successive 3 days to male ICR mice (10-week old, n=12). The dosage was 30 mg per 1 kg of body weight. ICR mice administered with vehicle alone were used as control (n=15). At 24 hours after the administration, blood was collected from jugular vein under anesthesia with ether. To the blood were immediately added ethylenediamine tetracetate (EDTA) at a final concentration of 3 mg/ml and aprotinin at a final concentration of 300 KIU/ml. The mixture was centrifuged for 15 minutes at 3000×g, and the concentration of testosterone in the plasma was measured by the radio immunoassay.
The rate of testosterone suppression (%) of the test compound was determined by the formula; 100−(concentration of plasma testosterone in the test group)/(concentration of plasma testosterone in the control group)×100.

`CCOC(=O)c1cn(Cc2ccccc2OC)c2sc(-c3ccc(OC)cc3)c(CN(C)Cc3ccccc3)c2c1=O` [3-(N-benzyl-N-methylaminomethyl)-4,7-dihydro-7-(2-methoxybenzyl)-2-(4-methoxyphenyl)-4-oxothieno[2,3-b]pyridine-5-carboxylic acid ethyl ester]: the inhibition at 20 µM (stock) turned out to be 20 ± 10% in data set [1] (p<0.01, n=3, read-out: inhibiting rate (%) of FSH secretion) and 28 ± 9% in data set [1] (p<0.01, n=3, read-out: inhibiting rate (%) of LH secretion). The “rate of testosterone suppression (%)” value in the data set on male SD rats is listed as 38±9.7%. `CCOC(=O)c1cn(Cc2ccccc2OC)c2sc(-c3ccc(OC)cc3)c(CN(C)Cc3ccccc3)c2c1=O` (as salt: hydrochloride) [3-(N-benzyl-N-methylaminomethyl)-4,7-dihydro-7-(2-methoxybenzyl)-2-(4-methoxyphenyl)-4-oxothieno[2,3-b]pyridine-5-carboxylic acid ethyl ester]: the melting point fell in the range of 147 to 152 °C. Take `CCC(=O)Nc1ccc(-c2sc3c(c2CN(C)Cc2ccccc2)c(=O)c(C(=O)c2ccccc2)cn3Cc2c(F)cccc2F)cc1` [Working Example 56, 5-Benzoyl-7-(2,6-difluorobenzyl)-4,7-dihydro-3-(N-methyl-N-benzylaminomethyl)-2-(4-propionylamidophenyl)-4-oxothieno[2,3-b]pyridine]: the “rate of testosterone suppression (%)” value with male ICR mice was 85±9.7%.

The term melting point denotes the temperature, or range, at which the solid turns liquid.
